Results from BindingDB's records for doi:10.1021/jm058013g (Universidad San Pablo Ceu, 2005).

Molecular target: Cyclin-dependent kinase 1/G2/mitotic-specific cyclin-B (Marthasterias glacialis, UniProt P15206+Q9DGD3)
Assay: Kinase Inhibition Assay
Details: 30 °C

Cyclin-dependent kinase 1/G2/mitotic-specific cyclin-B, sequence (Q9DGD3 whole entry): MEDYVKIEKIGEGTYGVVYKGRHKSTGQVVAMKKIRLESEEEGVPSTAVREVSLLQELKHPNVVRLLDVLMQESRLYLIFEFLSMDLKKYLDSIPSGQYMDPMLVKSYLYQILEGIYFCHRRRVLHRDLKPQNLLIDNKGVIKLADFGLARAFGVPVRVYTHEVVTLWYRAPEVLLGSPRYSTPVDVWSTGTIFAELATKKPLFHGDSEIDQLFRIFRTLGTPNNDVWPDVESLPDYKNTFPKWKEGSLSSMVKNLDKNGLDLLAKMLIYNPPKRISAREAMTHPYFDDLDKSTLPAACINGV
Cyclin-dependent kinase 1/G2/mitotic-specific cyclin-B, sequence (P15206 whole entry): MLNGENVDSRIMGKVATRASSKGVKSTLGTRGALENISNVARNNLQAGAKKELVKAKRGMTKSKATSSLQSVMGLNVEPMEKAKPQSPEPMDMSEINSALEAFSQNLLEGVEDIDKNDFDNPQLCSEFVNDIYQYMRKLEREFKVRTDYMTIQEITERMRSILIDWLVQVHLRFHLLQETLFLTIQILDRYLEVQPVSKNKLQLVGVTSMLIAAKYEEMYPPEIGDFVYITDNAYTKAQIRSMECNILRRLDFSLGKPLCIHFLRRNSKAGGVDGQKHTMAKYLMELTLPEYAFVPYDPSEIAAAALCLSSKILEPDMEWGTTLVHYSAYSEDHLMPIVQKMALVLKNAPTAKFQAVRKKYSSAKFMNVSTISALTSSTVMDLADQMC

Structure (SMILES) | IC50 [µM] | IC50 (pH 7.2) [µM]
CC(=O)n1nc(N)c2c(-c3ccccc3)c(-c3ccccc3)nnc21 [1-{3-amino-4,5-diphenyl-1H-pyrazolo[3,4-c]pyridazin-1-yl}ethan-1-one] | > 50 | 
Nc1nn(CCOCCO)c2nnc(-c3ccccc3)c(-c3ccccc3)c12 [2-[2-(3-Amino-4,5-diphenyl-1H-pyrazolo[3,4-c]pyridazin-1-yl)ethoxy]ethanol] | > 50 | 
Nc1nn(COCCO)c2nnc(-c3ccccc3)c(-c3ccccc3)c12 [2-[(3-Amino-4,5-diphenyl-1H-pyrazolo[3,4-c]pyridazin-1-yl)methoxy]ethanol] | > 50 | 
CC(=O)Nc1nn(C(C)=O)c2nnc(-c3ccccc3)c(-c3ccccc3)c12 [3-Acetamido-1-acetyl-4,5-diphenyl-1H-pyrazolo[3,4-c]-pyridazine] | > 50 | 
Nc1nn(Cc2ccccc2)c2nnc(-c3ccccc3)c(-c3ccccc3)c12 [3-Amino-1-benzyl-4,5-diphenyl-1H-pyrazolo[3,4-c]pyridazine] | > 50 | 
Nc1n[nH]c2nnc(-c3ccc(-c4ccccc4)cc3)c(-c3ccc(-c4ccccc4)cc3)c12 [3-Amino-4,5-bis(4-biphenyl)-1H-pyrazolo[3,4-c]pyridazine] |  | > 50
Nc1ccc(-c2nnc3[nH]nc(N)c3c2-c2ccc(N)cc2)cc1 [3-Amino-4,5-bis(p-aminophenyl)-1H-pyrazolo[3,4-c]-pyridazine] |  | > 50
COc1ccc(-c2nnc3[nH]nc(N)c3c2-c2ccc(OC)cc2)cc1 [3-Amino-4,5-bis(p-methoxyphenyl)-1H-pyrazolo[3,4-c]-pyridazine] |  | 15
Nc1n[nH]c2nnc(-c3ccc(C(F)(F)F)cc3)c(-c3ccc(C(F)(F)F)cc3)c12 [3-Amino-4,5-bis(p-trifluoromethylphenyl)-1H-pyrazolo-[3,4-c]pyridazine] |  | > 50
CC/N=C(\S)Nc1[nH]nc2nnc(-c3ccco3)cc12 [3-ethyl-1-[5-(furan-2-yl)-1H-pyrazolo[3,4-c]pyridazin-3-yl]thiourea] | > 50 | 
Nc1n[nH]c2nnc(-c3ccc([N+](=O)[O-])cc3)c(-c3ccc([N+](=O)[O-])cc3)c12 [4,5-bis(4-nitrophenyl)-1H-pyrazolo[3,4-c]pyridazin-3-amine] |  | > 50
CC(C)(C)c1ccc(-c2nnc3[nH]nc(N)c3c2-c2ccc(C(C)(C)C)cc2)cc1 [4,5-bis(4-tert-butylphenyl)-1H-pyrazolo[3,4-c]pyridazin-3-amine] |  | > 50
Nc1n[nH]c2nnc(-c3ccccn3)c(-c3ccccn3)c12 [4,5-bis(pyridin-2-yl)-1H-pyrazolo[3,4-c]pyridazin-3-amine] |  | > 50
Cc1n[nH]c2nnc(N)c-2c1C [4,5-dimethyl-1H-pyrazolo[3,4-c]pyridazin-3-amine] |  | > 50
Oc1[nH]nc2nnc(-c3ccccc3)c(-c3ccccc3)c12 [4,5-diphenyl-1H-pyrazolo[3,4-c]pyridazin-3-ol] | > 50 | 
Nc1n[nH]c2nncc(-c3ccccc3)c12 [4-phenyl-1H-pyrazolo[3,4-c]pyridazin-3-amine] |  | > 50
Cc1n[nH]c2nnc(N)c-2c1-c1ccccc1 [5-methyl-4-phenyl-1H-pyrazolo[3,4-c]pyridazin-3-amine] |  | > 50
Nc1n[nH]c2nnc3c4ccccc4c4ccccc4c3c12 [17,18,20,21-tetraazapentacyclo[12.7.0.0^{2,7}.0^{8,13}.0^{15,19}]henicosa-1(21),2,4,6,8,10,12,14,16,19-decaen-16-amine] |  | > 50
CC(=O)Nc1n[nH]c2nnc(-c3ccccc3)c(-c3ccccc3)c12 [N-{4,5-diphenyl-1H-pyrazolo[3,4-c]pyridazin-3-yl}acetamide] | > 50 | 
Nc1n[nH]c2nnc(-c3ccccc3)cc12 [Pyrazolopyridazine deriv. 1n] |  | 4
